ChEMBL document CHEMBL4507311, “Data for DCP probe A-1155463” (2021)
Activity calls are given as the source filed them. No cut-off for these calls is given here.

What was measured:
[1] = target: Sulfonylurea receptors; K-ATP channels (Rattus norvegicus) (UniProt Q63563+P70673+Q63664+Q09429); experiment: KATP channel Eurofins-Cerep binding assay; format: protein-complex assay; set-up: ligand concentration 0.1 nM; conditions: filed as antagonist, Compound concentration 10.0 uM
[2] = target: Urotensin-2 receptor (Homo sapiens) (UniProt Q9UKP6); experiment: UT (h) Eurofins-Cerep binding assay; set-up: ligand concentration 0.1 nM; conditions: filed as agonist, Compound concentration 10.0 uM
Chain of Urotensin-2 receptor (Homo sapiens) (Q9UKP6 whole entry): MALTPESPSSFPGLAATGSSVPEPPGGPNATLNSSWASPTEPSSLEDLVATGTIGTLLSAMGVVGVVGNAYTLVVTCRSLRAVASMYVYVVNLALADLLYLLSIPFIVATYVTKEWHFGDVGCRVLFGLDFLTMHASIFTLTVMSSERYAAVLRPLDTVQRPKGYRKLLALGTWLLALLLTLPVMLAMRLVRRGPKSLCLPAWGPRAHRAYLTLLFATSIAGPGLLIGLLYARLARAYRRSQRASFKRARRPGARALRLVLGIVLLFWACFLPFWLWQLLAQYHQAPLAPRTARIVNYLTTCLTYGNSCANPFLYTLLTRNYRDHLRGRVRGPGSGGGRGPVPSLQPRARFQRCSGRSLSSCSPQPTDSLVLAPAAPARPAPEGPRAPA

[3] = target: Prostaglandin G/H synthase 2 (Homo sapiens) (UniProt P35354); experiment: COX2(h) Eurofins-Cerep enzyme and uptake assay; conditions: Compound concentration 10.0 uM
[4] = target: Substance-P receptor (Homo sapiens) (UniProt P25103); experiment: NK1 (h) Eurofins-Cerep binding assay; set-up: ligand concentration 0.05 nM; conditions: filed as agonist, Compound concentration 10.0 uM
Chain of Substance-P receptor (Homo sapiens) (P25103 whole entry): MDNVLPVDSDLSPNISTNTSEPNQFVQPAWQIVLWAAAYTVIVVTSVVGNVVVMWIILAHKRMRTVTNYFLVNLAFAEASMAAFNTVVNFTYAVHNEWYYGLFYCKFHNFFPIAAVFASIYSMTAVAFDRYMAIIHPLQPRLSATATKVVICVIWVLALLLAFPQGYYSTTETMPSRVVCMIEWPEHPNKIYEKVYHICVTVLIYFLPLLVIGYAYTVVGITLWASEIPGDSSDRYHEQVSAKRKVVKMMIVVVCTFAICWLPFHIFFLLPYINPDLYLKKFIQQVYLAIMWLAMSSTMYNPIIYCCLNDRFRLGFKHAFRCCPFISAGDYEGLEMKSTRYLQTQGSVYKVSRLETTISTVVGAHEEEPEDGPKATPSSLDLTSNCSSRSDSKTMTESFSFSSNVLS

[5] = target: T1, Muscarinic acetylcholine receptor M5 (Homo sapiens) (UniProt P08912); experiment: M5 (h) Eurofins-Cerep binding assay; set-up: ligand concentration 0.3 nM; conditions: filed as antagonist, Compound concentration 10.0 uM
T1 sequence (whole entry): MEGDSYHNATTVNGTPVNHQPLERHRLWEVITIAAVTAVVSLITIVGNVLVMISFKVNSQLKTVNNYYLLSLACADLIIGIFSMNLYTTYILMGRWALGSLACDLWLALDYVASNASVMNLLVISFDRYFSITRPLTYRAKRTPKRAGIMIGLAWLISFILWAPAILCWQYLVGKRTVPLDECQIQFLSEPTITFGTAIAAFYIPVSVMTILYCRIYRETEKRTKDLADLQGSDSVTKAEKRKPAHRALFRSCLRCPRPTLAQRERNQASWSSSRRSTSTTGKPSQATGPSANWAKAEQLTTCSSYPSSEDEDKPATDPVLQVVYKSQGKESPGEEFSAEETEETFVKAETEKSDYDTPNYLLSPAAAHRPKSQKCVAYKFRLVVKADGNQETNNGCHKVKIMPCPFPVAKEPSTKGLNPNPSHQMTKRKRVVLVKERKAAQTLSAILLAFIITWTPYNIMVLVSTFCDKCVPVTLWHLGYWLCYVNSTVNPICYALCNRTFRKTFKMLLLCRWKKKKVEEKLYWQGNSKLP

[6] = target: Peroxisome proliferator-activated receptor gamma (Homo sapiens) (UniProt P37231); experiment: PPARgamma (h) Eurofins-Cerep binding assay; set-up: ligand concentration 5 nM; conditions: filed as agonist, Compound concentration 10.0 uM
[7] = target: Prostaglandin E2 receptor EP2 subtype (Homo sapiens) (UniProt P43116); experiment: EP2 (h) Eurofins-Cerep binding assay; set-up: ligand concentration 3 nM; conditions: filed as agonist, Compound concentration 10.0 uM
Chain of Prostaglandin E2 receptor EP2 subtype (Homo sapiens) (P43116 whole entry): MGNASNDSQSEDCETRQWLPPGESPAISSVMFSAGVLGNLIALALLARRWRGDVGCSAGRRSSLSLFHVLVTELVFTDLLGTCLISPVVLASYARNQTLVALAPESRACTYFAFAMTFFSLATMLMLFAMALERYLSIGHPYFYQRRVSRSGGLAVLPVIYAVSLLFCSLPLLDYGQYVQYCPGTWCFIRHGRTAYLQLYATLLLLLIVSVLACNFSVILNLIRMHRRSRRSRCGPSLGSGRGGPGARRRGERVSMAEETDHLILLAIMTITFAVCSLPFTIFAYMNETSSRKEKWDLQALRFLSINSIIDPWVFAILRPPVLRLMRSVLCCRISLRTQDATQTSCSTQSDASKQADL

[8] = target: T2, Alpha-1B adrenergic receptor (Homo sapiens) (UniProt P35368); experiment: Alpha1B (h) Eurofins-Cerep binding assay; set-up: ligand concentration 0.15 nM; conditions: filed as antagonist, Compound concentration 10.0 uM
T2 sequence (whole entry): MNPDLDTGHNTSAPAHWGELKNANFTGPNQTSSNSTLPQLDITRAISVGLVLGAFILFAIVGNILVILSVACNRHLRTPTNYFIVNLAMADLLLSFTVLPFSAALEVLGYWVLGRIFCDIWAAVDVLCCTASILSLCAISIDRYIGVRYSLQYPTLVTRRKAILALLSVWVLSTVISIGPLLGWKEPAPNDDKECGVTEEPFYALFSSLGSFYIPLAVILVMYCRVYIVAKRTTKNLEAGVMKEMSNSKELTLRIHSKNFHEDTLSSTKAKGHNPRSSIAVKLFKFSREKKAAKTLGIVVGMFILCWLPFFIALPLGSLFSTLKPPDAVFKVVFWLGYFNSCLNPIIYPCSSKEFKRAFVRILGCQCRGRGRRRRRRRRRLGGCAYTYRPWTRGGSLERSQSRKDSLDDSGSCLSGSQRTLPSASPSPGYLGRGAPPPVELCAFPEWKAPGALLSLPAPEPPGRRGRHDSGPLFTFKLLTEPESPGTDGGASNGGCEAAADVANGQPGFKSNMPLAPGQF

[9] = target: Glucocorticoid receptor (Homo sapiens) (UniProt P04150); experiment: GR (h) Eurofins-Cerep binding assay; set-up: ligand concentration 1.5 nM; conditions: filed as agonist, Compound concentration 10.0 uM
Chain of Glucocorticoid receptor (Homo sapiens) (P04150 whole entry): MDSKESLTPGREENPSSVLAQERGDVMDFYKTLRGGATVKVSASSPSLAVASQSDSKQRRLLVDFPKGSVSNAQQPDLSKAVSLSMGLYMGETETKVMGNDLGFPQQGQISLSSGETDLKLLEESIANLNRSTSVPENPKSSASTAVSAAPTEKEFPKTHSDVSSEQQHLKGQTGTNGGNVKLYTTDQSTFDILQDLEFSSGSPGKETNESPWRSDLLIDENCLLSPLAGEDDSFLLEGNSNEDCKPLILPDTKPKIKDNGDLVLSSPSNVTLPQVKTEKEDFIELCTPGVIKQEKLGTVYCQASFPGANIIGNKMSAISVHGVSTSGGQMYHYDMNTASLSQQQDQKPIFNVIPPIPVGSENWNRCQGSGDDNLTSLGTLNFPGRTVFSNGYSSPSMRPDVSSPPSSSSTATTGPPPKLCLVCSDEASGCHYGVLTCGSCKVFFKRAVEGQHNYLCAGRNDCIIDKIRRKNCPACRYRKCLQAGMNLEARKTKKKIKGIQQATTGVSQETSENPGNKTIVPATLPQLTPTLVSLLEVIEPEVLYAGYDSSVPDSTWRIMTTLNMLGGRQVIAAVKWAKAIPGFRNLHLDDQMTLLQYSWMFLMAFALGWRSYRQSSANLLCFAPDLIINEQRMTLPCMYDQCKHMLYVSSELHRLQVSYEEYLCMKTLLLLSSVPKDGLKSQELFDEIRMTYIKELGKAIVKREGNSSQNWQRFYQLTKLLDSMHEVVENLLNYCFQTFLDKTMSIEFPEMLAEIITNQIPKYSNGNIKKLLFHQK

[10] = target: Motilin receptor (Homo sapiens) (UniProt O43193); experiment: motilin (h Eurofins-Cerep binding assay; set-up: ligand concentration 0.05 nM; conditions: filed as agonist, Compound concentration 10.0 uM
[11] = target: Adenosine receptor A2a (Homo sapiens) (UniProt P29274); experiment: A2A (h) Eurofins-Cerep binding assay; set-up: ligand concentration 6 nM; conditions: filed as agonist, Compound concentration 10.0 uM
Chain of Adenosine receptor A2a (Homo sapiens) (P29274 whole entry): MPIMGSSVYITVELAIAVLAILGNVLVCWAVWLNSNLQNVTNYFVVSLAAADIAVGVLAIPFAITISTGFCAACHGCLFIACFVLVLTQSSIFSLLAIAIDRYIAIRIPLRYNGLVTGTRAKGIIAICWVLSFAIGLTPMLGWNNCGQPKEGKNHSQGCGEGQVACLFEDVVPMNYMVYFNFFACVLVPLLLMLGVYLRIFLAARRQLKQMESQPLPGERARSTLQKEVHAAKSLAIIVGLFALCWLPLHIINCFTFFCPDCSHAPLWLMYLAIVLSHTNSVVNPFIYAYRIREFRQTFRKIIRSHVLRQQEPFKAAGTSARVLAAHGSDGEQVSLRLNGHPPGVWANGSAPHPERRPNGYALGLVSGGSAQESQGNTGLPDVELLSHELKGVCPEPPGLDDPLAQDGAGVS

[12] = target: Sodium- and chloride-dependent GABA transporter 1 (Rattus norvegicus) (UniProt P23978); experiment: GABA transporter Eurofins-Cerep binding assay; set-up: ligand concentration 10 nM; conditions: filed as antagonist, Compound concentration 10.0 uM
[13] = target: Sodium-dependent noradrenaline transporter (Homo sapiens) (UniProt P23975); experiment: norepinephrine transporter (h) Eurofins-Cerep binding assay; set-up: ligand concentration 1 nM; conditions: filed as antagonist, Compound concentration 10.0 uM
[14] = target: Substance-K receptor (Homo sapiens) (UniProt P21452); experiment: NK2 (h) Eurofins-Cerep binding assay; set-up: ligand concentration 0.1 nM; conditions: filed as agonist, Compound concentration 10.0 uM
Chain of Substance-K receptor (Homo sapiens) (P21452 whole entry): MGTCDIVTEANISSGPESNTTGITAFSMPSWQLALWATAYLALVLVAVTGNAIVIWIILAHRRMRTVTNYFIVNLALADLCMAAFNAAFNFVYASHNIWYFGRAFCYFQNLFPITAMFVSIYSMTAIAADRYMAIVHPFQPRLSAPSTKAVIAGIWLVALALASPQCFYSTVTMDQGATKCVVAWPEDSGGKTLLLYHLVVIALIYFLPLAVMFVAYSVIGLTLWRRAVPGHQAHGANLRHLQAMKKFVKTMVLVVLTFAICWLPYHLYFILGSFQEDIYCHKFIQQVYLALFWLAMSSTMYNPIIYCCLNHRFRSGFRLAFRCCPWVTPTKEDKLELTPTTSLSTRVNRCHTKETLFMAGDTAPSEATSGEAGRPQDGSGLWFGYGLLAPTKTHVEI

[15] = target: Acetylcholinesterase (Homo sapiens) (UniProt P22303); experiment: Acetylcholinesterase (h) Eurofins-Cerep enzyme and uptake assay; conditions: Compound concentration 10.0 uM
[16] = target: Vasoactive intestinal polypeptide receptor 1 (Homo sapiens) (UniProt P32241); experiment: VPAC1 (VIP1) (h) Eurofins-Cerep binding assay; set-up: ligand concentration 0.04 nM; conditions: filed as agonist, Compound concentration 10.0 uM
[17] = target: Mu-type opioid receptor (Homo sapiens) (UniProt P35372); experiment: mu (MOP) (h) Eurofins-Cerep binding assay; set-up: ligand concentration 0.5 nM; conditions: filed as agonist, Compound concentration 10.0 uM
[18] = target: Neuropeptide Y receptor type 1 (Homo sapiens) (UniProt P25929); experiment: Y1 (h) Eurofins-Cerep binding assay; set-up: ligand concentration 0.025 nM; conditions: filed as agonist, Compound concentration 10.0 uM
[19] = target: Cholecystokinin receptor type A (Homo sapiens) (UniProt P32238); experiment: CCK1 (CCKA) (h) Eurofins-Cerep binding assay; set-up: ligand concentration 0.08 nM; conditions: filed as agonist, Compound concentration 10.0 uM
Bcl-2-like protein 1 = Bcl-2-like protein 1 (Homo sapiens, UniProt Q07817); experiment: Time-resolved fluorescence energy transfer (TR-FRET) with BCL2L1
[20] = target: Glutamate NMDA receptor (Rattus norvegicus) (UniProt P35439+Q00959+Q00960+Q00961+Q62645+Q8VHN2+Q9R1M7); experiment: NMDA Eurofins-Cerep binding assay; format: protein-complex assay; set-up: ligand concentration 5 nM; conditions: filed as antagonist, Compound concentration 10.0 uM
[21] = target: Histamine H2 receptor (Homo sapiens) (UniProt P25021); experiment: H2 (h) Eurofins-Cerep binding assay; set-up: ligand concentration 0.075 nM; conditions: filed as antagonist, Compound concentration 10.0 uM
Chain of Histamine H2 receptor (Homo sapiens) (P25021 whole entry): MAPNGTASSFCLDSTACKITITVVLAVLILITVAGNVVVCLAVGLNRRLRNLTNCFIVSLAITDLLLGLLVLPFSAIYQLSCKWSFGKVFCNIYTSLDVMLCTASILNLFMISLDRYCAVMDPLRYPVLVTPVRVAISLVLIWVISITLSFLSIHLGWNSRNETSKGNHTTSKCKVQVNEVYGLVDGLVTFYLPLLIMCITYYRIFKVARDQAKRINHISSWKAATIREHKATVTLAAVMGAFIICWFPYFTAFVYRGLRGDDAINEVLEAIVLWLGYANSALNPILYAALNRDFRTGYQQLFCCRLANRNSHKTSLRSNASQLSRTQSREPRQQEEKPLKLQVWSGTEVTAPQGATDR

[22] = target: D(2) dopamine receptor (Homo sapiens) (UniProt P14416); experiment: D2S (h) Eurofins-Cerep binding assay; set-up: ligand concentration 0.3 nM; conditions: filed as antagonist, Compound concentration 10.0 uM
Chain of D(2) dopamine receptor (Homo sapiens) (P14416 whole entry): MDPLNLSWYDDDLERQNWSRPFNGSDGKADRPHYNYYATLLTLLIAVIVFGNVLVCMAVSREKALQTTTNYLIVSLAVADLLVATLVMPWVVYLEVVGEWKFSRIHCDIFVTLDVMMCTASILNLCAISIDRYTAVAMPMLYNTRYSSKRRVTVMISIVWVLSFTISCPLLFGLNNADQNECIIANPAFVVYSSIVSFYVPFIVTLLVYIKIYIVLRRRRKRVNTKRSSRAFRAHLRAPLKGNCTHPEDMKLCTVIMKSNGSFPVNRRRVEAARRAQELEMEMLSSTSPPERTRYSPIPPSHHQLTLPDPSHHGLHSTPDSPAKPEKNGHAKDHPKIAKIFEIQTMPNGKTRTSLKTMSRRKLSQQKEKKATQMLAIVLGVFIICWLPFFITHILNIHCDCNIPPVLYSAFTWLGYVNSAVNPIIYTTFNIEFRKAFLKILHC

[23] = target: T3, 5-hydroxytryptamine receptor 1A (Homo sapiens) (UniProt P08908); experiment: 5-HT1A (h) Eurofins-Cerep binding assay; set-up: ligand concentration 0.5 nM; conditions: filed as agonist, Compound concentration 10.0 uM
T3 sequence (whole entry): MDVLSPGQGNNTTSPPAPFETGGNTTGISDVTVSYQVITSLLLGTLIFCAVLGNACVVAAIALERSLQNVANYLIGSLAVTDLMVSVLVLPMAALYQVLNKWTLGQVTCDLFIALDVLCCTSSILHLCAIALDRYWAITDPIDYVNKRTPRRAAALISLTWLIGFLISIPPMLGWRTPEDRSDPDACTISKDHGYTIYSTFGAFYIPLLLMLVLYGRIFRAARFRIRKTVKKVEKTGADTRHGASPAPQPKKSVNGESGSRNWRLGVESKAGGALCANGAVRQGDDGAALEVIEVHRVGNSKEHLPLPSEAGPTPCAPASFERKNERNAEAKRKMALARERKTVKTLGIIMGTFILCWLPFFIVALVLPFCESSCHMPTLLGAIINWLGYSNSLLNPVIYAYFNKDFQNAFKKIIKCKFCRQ

[24] = target: Translocator protein (Rattus norvegicus) (UniProt P16257); experiment: BZD (peripheral) Eurofins-Cerep binding assay; set-up: ligand concentration 0.2 nM; conditions: filed as antagonist, Compound concentration 10.0 uM
Chain of Translocator protein (Rattus norvegicus) (P16257 whole entry, looked up): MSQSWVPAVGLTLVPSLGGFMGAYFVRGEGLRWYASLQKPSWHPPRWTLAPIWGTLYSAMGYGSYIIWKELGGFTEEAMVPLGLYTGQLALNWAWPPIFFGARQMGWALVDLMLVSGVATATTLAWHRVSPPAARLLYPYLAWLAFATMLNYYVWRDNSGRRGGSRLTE

[25] = target: Angiotensin-converting enzyme (Homo sapiens) (UniProt P12821); experiment: ACE (h) Eurofins-Cerep enzyme and uptake assay; conditions: Compound concentration 10.0 uM
[26] = target: Beta-1 adrenergic receptor (Homo sapiens) (UniProt P08588); experiment: Beta1 (h) Eurofins-Cerep binding assay; set-up: ligand concentration 0.3 nM; conditions: filed as agonist, Compound concentration 10.0 uM
Chain of Beta-1 adrenergic receptor (Homo sapiens) (P08588 whole entry, looked up): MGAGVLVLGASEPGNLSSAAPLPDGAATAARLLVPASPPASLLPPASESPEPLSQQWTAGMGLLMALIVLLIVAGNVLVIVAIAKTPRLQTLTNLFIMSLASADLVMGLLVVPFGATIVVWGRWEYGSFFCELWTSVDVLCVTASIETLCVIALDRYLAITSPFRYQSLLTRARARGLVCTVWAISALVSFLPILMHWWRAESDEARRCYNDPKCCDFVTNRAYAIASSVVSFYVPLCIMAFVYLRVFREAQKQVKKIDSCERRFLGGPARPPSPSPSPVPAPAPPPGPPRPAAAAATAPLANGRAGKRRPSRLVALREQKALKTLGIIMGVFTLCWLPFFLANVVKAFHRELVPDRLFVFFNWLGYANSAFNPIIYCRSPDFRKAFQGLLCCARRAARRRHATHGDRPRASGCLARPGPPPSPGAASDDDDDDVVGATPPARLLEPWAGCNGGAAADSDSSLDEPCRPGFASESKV

SMILES	% Inhibition of Control Specific Binding (Mean n=2) [1]	% Inhibition of Control Specific Binding (Mean n=2) [2]	% Inhibition of Control Values (Mean n=2) [3]	% Inhibition of Control Specific Binding (Mean n=2) [4]	% Inhibition of Control Specific Binding (Mean n=2) [5]	% Inhibition of Control Specific Binding (Mean n=2) [6]	% Inhibition of Control Specific Binding (Mean n=2) [7]	% Inhibition of Control Specific Binding (Mean n=2) [8]	% Inhibition of Control Specific Binding (Mean n=2) [9]	% Inhibition of Control Specific Binding (Mean n=2) [10]	% Inhibition of Control Specific Binding (Mean n=2) [11]	% Inhibition of Control Specific Binding (Mean n=2) [12]	% Inhibition of Control Specific Binding (Mean n=2) [13]	% Inhibition of Control Specific Binding (Mean n=2) [14]	% Inhibition of Control Values (Mean n=2) [15]	% Inhibition of Control Specific Binding (Mean n=2) [16]	% Inhibition of Control Specific Binding (Mean n=2) [17]	% Inhibition of Control Specific Binding (Mean n=2) [18]	% Inhibition of Control Specific Binding (Mean n=2) [19]	IC50 (Bcl-2-like protein 1)	also measured
O=C(Nc1nc2ccccc2s1)c1cccc2c1CN(c1nc(C(=O)O)c(CCOc3ccc(-n4ncc5cncnc54)cc3)s1)CC2 [A-1107969]	15.8%	62.2%	65.5%	8.7%	8.8%	98.2%	60.3%	-4.7%	55.4%	2.2%	28.3%	-1.5%	-4%	5.3%	14.5%	-8.2%	6%	-0.4%	68.9%	270 nM (not active)	% Inhibition of Control Specific Binding (Mean n=2) [20]: 7.8%; % Inhibition of Control Specific Binding (Mean n=2) [21]: -11%; % Inhibition of Control Specific Binding (Mean n=2) [22]: 13.5%; % Inhibition of Control Specific Binding (Mean n=2) [23]: -1%; % Inhibition of Control Specific Binding (Mean n=2) [24]: 77.2%; % Inhibition of Control Values (Mean n=2) [25]: -17%; % Inhibition of Control Specific Binding (Mean n=2) [26]: -0.4%
CN(C)CC#Cc1ccc(OCCCc2sc(N3CCc4cccc(C(=O)Nc5nc6ccccc6s5)c4C3)nc2C(=O)O)c(F)c1 [A-1155463]	27.4%	94.9%	62.2%	3.3%	10.3%	99.1%	33.8%	15.5%	37.8%	-21.6%	51.8%	17.3%	20.9%	25.6%	7.1%	-8.1%	36.1%	12.5%	98.9%	0.55 nM (active)	% Inhibition of Control Specific Binding (Mean n=2) [20]: 21.6%; % Inhibition of Control Specific Binding (Mean n=2) [21]: -11.6%; % Inhibition of Control Specific Binding (Mean n=2) [22]: 27.1%; % Inhibition of Control Specific Binding (Mean n=2) [23]: 32.2%; % Inhibition of Control Specific Binding (Mean n=2) [24]: 41.3%; % Inhibition of Control Values (Mean n=2) [25]: 22.1%; % Inhibition of Control Specific Binding (Mean n=2) [26]: 1.4%
